Measurements from patent publication US7700782B2, “Compounds 569” (AstraZeneca AB, priority 2007, dated 2010).
Counter-ions that a name gives are not always drawn.

Target: T1, Adrenergic β2 (Homo sapiens, UniProt P07550)
T1 construct: Adherent H292 cells were removed from tissue culture flasks; endogenous in cells; host or cells: H292 cells
Experiment: Adrenergic β2 mediated cAMP production in H292 cells (AlphaScreen cAMP detection)
Assay type: cell-based
Conditions: Intrinsic Activity, fraction relative to the maximum activity determined for formoterol
In short: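 H292 cells, 5000/well, preincubated 10 min with rolipram (final 300 μM, 1.6% DMSO) in HEPES pH 7.4 HBSS, then compound 60 min at room temperature. Lysate cAMP quantified by AlphaScreen against a cAMP standard curve. pEC50 and intrinsic activity (fraction of formoterol maximum) from four-parameter logistic fits.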

T1 sequence (P07550 whole entry): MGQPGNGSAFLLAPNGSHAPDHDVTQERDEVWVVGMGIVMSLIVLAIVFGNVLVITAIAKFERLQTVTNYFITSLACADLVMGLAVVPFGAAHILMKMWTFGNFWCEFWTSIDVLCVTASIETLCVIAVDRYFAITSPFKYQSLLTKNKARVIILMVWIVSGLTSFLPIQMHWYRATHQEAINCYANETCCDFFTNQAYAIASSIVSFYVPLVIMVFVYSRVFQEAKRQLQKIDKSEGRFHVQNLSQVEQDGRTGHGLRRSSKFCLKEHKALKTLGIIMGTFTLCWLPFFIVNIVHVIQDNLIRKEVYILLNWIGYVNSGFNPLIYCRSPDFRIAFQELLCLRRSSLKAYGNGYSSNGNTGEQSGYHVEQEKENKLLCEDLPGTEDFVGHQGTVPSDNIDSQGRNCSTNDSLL

Row | Compound | β2 Int Act
1 | O=C(CCNCCc1ccc(F)cc1F)N(CCNCCc1ccc(O)c2[nH]c(=O)sc12)C1CCCCCC1 [Example 55, N^1-Cycloheptyl-N^3-[2-(2,4-difluorophenyl)ethyl]-N^1-(2-{[2-(4-hydroxy-2-oxo-2,3-dihydro-1,3-benzothiazol-7-yl)ethyl]amino}ethyl)-β-alaninamide bis-trifluoroacetic acid salt] | 0.81
2 | O=C(CCNCCc1cccc(F)c1F)N(CCNCCc1ccc(O)c2[nH]c(=O)sc12)C1CCCCCC1 [Example 56, N^1-Cycloheptyl-N^3-[2-(2,3-difluorophenyl)ethyl]-N^1-(2-{[2-(4-hydroxy-2-oxo-2,3-dihydro-1,3-benzothiazol-7-yl)ethyl]amino}ethyl)-β-alaninamide bis-trifluoroacetic acid salt] | 0.86
3 | O=C(CCNCCc1ccc(F)cc1Cl)N(CCNCCc1ccc(O)c2[nH]c(=O)sc12)C1CCCCCC1 [Example 57, N^3-[2-(2-Chloro-4-fluorophenyl)ethyl]-N^1-cycloheptyl-N^1-(2-{[2-(4-hydroxy-2-oxo-2,3-dihydro-1,3-benzothiazol-7-yl)ethyl]amino}ethyl)-β-alaninamide bis-trifluoroacetic acid salt] | 0.72
4 | O=C(CCNCCc1cc(F)cc(F)c1)N(CCNCCc1ccc(O)c2[nH]c(=O)sc12)C1CCCCCC1 [Example 58, N^1-Cycloheptyl-N^3-[2-(3,5-difluorophenyl)ethyl]-N^1-(2-{[2-(4-hydroxy-2-oxo-2,3-dihydro-1,3-benzothiazol-7-yl)ethyl]amino}ethyl)-β-alaninamide bis-trifluoroacetic acid salt] | 0.84
5 | O=C(CCNCCc1ccccc1)N(CCNCCc1ccc(O)c2[nH]c(=O)sc12)CC12CC3CC(CC(C3)C1)C2 [Example 59, N^1-(1-Adamantylmethyl)-N^1-(2-{[2-(4-hydroxy-2-oxo-2,3-dihydro-1,3-benzothiazol-7-yl)ethyl]amino}ethyl)-N^3-(2-phenylethyl)-β-alaninamide bis-trifluoroacetic acid salt] | 0.85
6 | O=C(CCNCCc1cccc(F)c1)N(CCNCCc1ccc(O)c2[nH]c(=O)sc12)CC12CC3CC(CC(C3)C1)C2 [Example 60, N^1-(1-Adamantylmethyl)-N^3-[2-(3-fluorophenyl)ethyl]-N^1-(2-{[2-(4-hydroxy-2-oxo-2,3-dihydro-1,3-benzothiazol-7-yl)ethyl]amino}ethyl)-β-alaninamide bis-trifluoroacetic acid salt] | 0.76
7 | O=C(CCNCCc1ccc(F)cc1)N(CCNCCc1ccc(O)c2[nH]c(=O)sc12)CC12CC3CC(CC(C3)C1)C2 [Example 61, N^1-(1-Adamantylmethyl)-N^3-[2-(4-fluorophenyl)ethyl]-N^1-(2-{[2-(4-hydroxy-2-oxo-2,3-dihydro-1,3-benzothiazol-7-yl)ethyl]amino}ethyl)-β-alaninamide bis-trifluoroacetic acid salt] | 0.79
8 | O=C(CCNCCc1ccccc1)N(CCNCCc1ccc(O)c2[nH]c(=O)sc12)C1CCSCC1 [Example 62, N^1-(2-{[2-(4-Hydroxy-2-oxo-2,3-dihydro-1,3-benzothiazol-7-yl)ethyl]amino}ethyl)-N^3-(2-phenylethyl)-N^1-(tetrahydro-2H-thiopyran-4-yl)-β-alaninamide bis-trifluoroacetic acid salt] | 0.87
9 | CCCC(CCC)N(CCNCCc1ccc(O)c2[nH]c(=O)sc12)C(=O)CCNCCc1cccc(F)c1 [Example 63, N^3-[2-(3-Fluorophenyl)ethyl]-N^1-(2-{[2-(4-hydroxy-2-oxo-2,3-dihydro-1,3-benzothiazol-7-yl)ethyl]amino}ethyl)-N^1-(1-propylbutyl)-β-alaninamide bis-trifluoroacetic acid salt] | 0.93
10 | CCCC(CCC)N(CCNCCc1ccc(O)c2[nH]c(=O)sc12)C(=O)CCNCCc1ccc(F)cc1 [Example 64, N^3-[2-(4-Fluorophenyl)ethyl]-N^1-(2-{[2-(4-hydroxy-2-oxo-2,3-dihydro-1,3-benzothiazol-7-yl)ethyl]amino}ethyl)-N^1-(1-propylbutyl)-β-alaninamide bis-trifluoroacetic acid salt] | 0.70
11 | CC(C)(CO)CN(CCNCCc1ccc(O)c2[nH]c(=O)sc12)C(=O)CCNCCc1ccccc1Cl [Example 65, N^3-[2-(2-Chlorophenyl)ethyl]-N^1-(3-hydroxy-2,2-dimethylpropyl)-N^1-(2-{[2-(4-hydroxy-2-oxo-2,3-dihydro-1,3-benzothiazol-7-yl)ethyl]amino}ethyl)-β-alaninamide bis-trifluoroacetic acid salt] | 0.59
12 | CC(C)(CO)CN(CCNCCc1ccc(O)c2[nH]c(=O)sc12)C(=O)CCNCCc1cccc(Cl)c1 [Example 66, N^3-[2-(3-Chlorophenyl)ethyl]-N^1-(3-hydroxy-2,2-dimethylpropyl)-N^1-(2-{[2-(4-hydroxy-2-oxo-2,3-dihydro-1,3-benzothiazol-7-yl)ethyl]amino}ethyl)-β-alaninamide bis-trifluoroacetic acid salt] | 0.59
13 | CC(C)(CO)CN(CCNCCc1ccc(O)c2[nH]c(=O)sc12)C(=O)CCNCCc1cccc(Cl)c1Cl [Example 67, N^3-[2-(2,3-Dichlorophenyl)ethyl]-N^1-(3-hydroxy-2,2-dimethylpropyl)-N^1-(2-{[2-(4-hydroxy-2-oxo-2,3-dihydro-1,3-benzothiazol-7-yl)ethyl]amino}ethyl)-β-alaninamide bis-trifluoroacetic acid salt] | 0.70
14 | COc1ccc(CCNCCC(=O)N(CCNCCc2ccc(O)c3[nH]c(=O)sc23)C2CCCCC2)cc1 [Example 68, N^1-Cyclohexyl-N^1-(2-{[2-(4-hydroxy-2-oxo-2,3-dihydro-1,3-benzothiazol-7-yl)ethyl]amino}ethyl)-N^3-[2-(4-methoxyphenyl)ethyl]-β-alaninamide bis-trifluoroacetic acid salt] | 0.68
15 | NS(=O)(=O)c1ccc(CCNCCC(=O)N(CCNCCc2ccc(O)c3[nH]c(=O)sc23)C2CCCCC2)cc1 [Example 69, N^3-{2-[4-(Aminosulfonyl)phenyl]ethyl}-N^1-cyclohexyl-N^1-(2-{[2-(4-hydroxy-2-oxo-2,3-dihydro-1,3-benzothiazol-7-yl)ethyl]amino}ethyl)-β-alaninamide bis-trifluoroacetic acid salt] | 0.82
16 | COc1cccc(CCNCCC(=O)N(CCNCCc2ccc(O)c3[nH]c(=O)sc23)C2CCCCC2)c1 [Example 70, N^1-Cyclohexyl-N^1-(2-{[2-(4-hydroxy-2-oxo-2,3-dihydro-1,3-benzothiazol-7-yl)ethyl]amino}ethyl)-N^3-[2-(3-methoxyphenyl)ethyl]-β-alaninamide bis-trifluoroacetic acid salt] | 0.84
17 | O=C(CCNCCc1cccc(O)c1)N(CCNCCc1ccc(O)c2[nH]c(=O)sc12)C1CCCCC1 [Example 71, N^1-Cyclohexyl-N^1-(2-{[2-(4-hydroxy-2-oxo-2,3-dihydro-1,3-benzothiazol-7-yl)ethyl]amino}ethyl)-N^3-[2-(3-hydroxyphenyl)ethyl]-β-alaninamide bis-trifluoroacetic acid salt] | 0.97
